Assay results reported in patent US9987336B2, “Attenuating or treating sepsis or septic shock” (Rutgers, the State University of New Jersey, priority 2012, dated 2018).
Entries after “also recorded” stand apart in the source; their conditions may differ.

Tests used:
[1] = system: C57BL/6J mice made septic by cecal ligation and puncture (CLP); assay: Survival after sepsis induced by cecal ligation and puncture (CLP); assay type: in vivo, mouse; settings: murine model of septic shock induced by cecal ligation and puncture
Protocol: In this analysis, CD39 KO mice, mice administered a CD39 blocker (sodium polyoxotungstate) or mice administered an apyrase (potato apyrase) were made septic by cecal ligation and puncture (CLP) and survival after CLP was recorded for 7 days. In addition, the immune status of the mice was assessed by measuring cytokine levels from blood and peritoneal lavage fluid. […] Thus, ectonucleotidase manipulation is therapeutically useful for the treatment of septic shock.
(§1) CD39 knockout (KO) mice and their wild-type littermates were developed according to established methods and were backcrossed 6-8 times to a C57BL/6J background (Enjyoji, et al. (1999) Nat. Med. 5(9):1010-7). Wild-type and KO littermates were used in this analysis. In some experiments, mice were treated with sodium polyoxotungstate (POM-1, Na6[H2W12O40], 3 mg/kg/h, […], prior to CLP) or apyrase from potatoes (Sigma, 5 U apyrase i.p., prior to CLP).
(§2) Polymicrobial sepsis was induced by subjecting C57BL/6J mice to CLP in accordance with established methods (Németh, et al. (2006) supra; Gallos, et al. (2005) supra; Lee, et al. (2006) supra; Csóka, et al. (2010) supra). After the operation, all mice were resuscitated with 1 ml physiological saline injected s.c. and returned to their cages with free access to food and water.

[2] = system: TNF-α; assay: TNF-α level after CLP (ELISA); assay type: in vivo, mouse; settings: C57BL/6J mice, 16 hours post-CLP, vs. vehicle
Protocol: as §1, §2
(§3) Sixteen hours after the CLP operation (the following day), the mice were reanesthetized with pentobarbital (50 mg/kg i.p.), and blood and peritoneal lavage fluid were harvested. Specifically, after opening the chest of mice, blood samples were obtained aseptically by cardiac puncture using heparinized syringes. […]
(§4) Concentrations of TNF-α and MIP-2 were determined in blood and peritoneal lavage fluid obtained 16 hours after CLP using commercially available ELISA kits (R&D Systems, Minneapolis, Minn.) according to the manufacturer's instructions.

[3] = system: MIP-2; assay: MIP-2 level after CLP (ELISA); assay type: in vivo, mouse; settings: C57BL/6J mice, 16 hours post-CLP, vs. vehicle
Protocol: as §1, §2, §3, §4

[4] = system: adenosine receptors; settings: CD73 KO mice made septic by CLP; compared with wild-type mice; cited from earlier work

Molecule | organ dysfunction [1] | TNF-α levels [2] | MIP-2 levels [3] | inflammatory cytokine levels [4]
apyrase | prevents organ dysfunction | decreases plasma cytokine levels; also recorded: decreased the levels | decreases plasma cytokine levels; also recorded: decreased the levels | 
CCNC(=O)[C@H]1O[C@@H](n2cnc3c(N)ncnc32)[C@H](O)[C@@H]1O [NECA, 5′-(N-ethylcarboxamido)adenosine] |  |  |  | completely reversed the increased cytokine levels
sodium polyoxotungstate [reference compound] |  | increased the levels | increased the levels | 
